# Reference: patent US12295936B2, “Immunomodulating urea azalides” (Zoetis Services LLC, priority 2020, dated 2025)
# Entries after “also recorded” stand apart in the source; their conditions may differ. Like-named read-outs stand apart in the source and are kept apart here.
# Experiments:
# [1] = system: bovine alveolar macrophages; experiment: Phospholipidosis assay (HCS LipidTox, Incucyte); format: cell-based; conditions: Bos taurus, Macrophage
# Description: The second immunomodulation in vitro assay evaluated the potential for phospholipidosis with the compounds of the invention in bovine alveolar macrophages. This assay is utilized to determine cellular uptake of the compounds of the invention in relevant bovine and murine cell types. This assay utilized Invitrogen's commercially available HCS LipidTox detection kit with an Incucyte real time fluorescence reader to observe variations in EC50 and phospholipidosis profiles based on compound concentrations. Murine intraperitoneal macrophages were also used in the same assay to evaluate species variability for potential correlation with mouse efficacy results. The combination of the bovine whole blood assay and phospholipidosis assays enabled rank ordering for progression into in vivo testing in the murine challenge model.
# [2] = system: P. multocida 46572; experiment: In vivo mouse lung infection challenge model (murine efficacy); parameters: species or system CD-1 female mice
# Summary of the method: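 CD-1 female mice challenged intranasally with P. multocida 46572 at mid-log phase (target 5×10^2 CFU/mouse). Compounds given subcutaneously at 20 mg/kg in buffered (~pH 5.4) propylene glycol/monothioglycerol/water. Mortality observed Days 1–10, analysed by generalized mixed model; survival harmonized against vehicle survival rate.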
# [3] = system: P. multocida; experiment: In-vitro MIC model (CLSI broth micro-dilution); conditions: Pasteurella multocida
# [4] = system: H. somni; experiment: In-vitro MIC model (CLSI broth micro-dilution)
# [5] = system: TNF-α; experiment: LPS-stimulated whole bovine blood assay, MSD cytokine detection; format: cell-based; conditions: Bos taurus
# [6] = system: CD163; experiment: CD163 expression by flow cytometry, blood of treated/challenged cattle; conditions: blood macrophages
# [7] = system: IL-6; experiment: LPS-stimulated whole bovine blood assay, MSD cytokine detection; format: cell-based; conditions: Bos taurus, LPS-stimulated bovine whole blood; read-out: IL-6 (IC50 μM)
# Description: In order to correlate RNA sequencing data to cytokine changes the whole blood assay was utilized. […] The enhancement result represents an overall stimulation of cytokine levels due to cellular stress or potential toxicity with increasing concentrations of the compound, representing a typical bell shape response curve for immunomodulatory activity.
# [8] = system: bovine respiratory disease (BRD); experiment: Natural bovine respiratory disease (field) studies; format: in vivo, cattle; conditions: 14-day observation, beef calves at moderate risk for BRD, saline 43%
# [9] = system: M. haemolytica (OSU-012103-BHI); experiment: In vivo bovine M. haemolytica intratracheal lung infection challenge model; conditions: for Mortality/Euthanization Yes, % / Mortality/Euthanization Yes, Number / Mortality/Euthanization No, % / Mortality/Euthanization No, Number: positive control; for Mortality/Euthanization No, % / Mortality/Euthanization No, Number: surviving animals; for Significance to T01, mortality: p≤0.2
# [10] = system: IL-6; experiment: Plasma IL-6 biomarker in bovine M. haemolytica challenge; conditions: bovine, in vivo
# [11] = system: M. haemolytica (OSU-012103-BHI); conditions: 10 mg/kg, separate study; saline control 31%
# [12] = Table 7 study, T04: 10 mg/kg subcutaneous
# [13] = Table 9 study, T05: 10 mg/kg subcutaneous
structure (smiles),measurement,setting,value
"CCCNC[C@]1(O)[C@H](C)O[C@@H](O[C@H]2[C@H](C)[C@@H](O[C@@H]3O[C@H](C)C[C@H](NC)[C@H]3O)[C@](C)(O)C[C@@H](C)CN[C@H](C)[C@@H](O)[C@](C)(O)[C@@H](CC)OC(=O)[C@@H]2C)C[C@@]1(C)OC [Example M9, (2R,3S,4R,5R,8R,10R,11R,12S,13S,14R)-2-ethyl-3,4,10-trihydroxy-13-(((2R,4R,5S,6S)-5-hydroxy-4-methoxy-4,6-dimethyl-5-((propylamino)methyl)-tetrahydro-2H-pyran-2-yl)oxy)-11-(((2S,3R,4S,6R)-3-hydroxy-6-methyl-4-(methylamino)tetrahydro-2H-pyran-2-yl)oxy)-3,5,8,10,12,14-hexamethyl-1-oxa-6-azacyclopentadecan-15-one, reference compound]",EC50,[1],3740 µM
same,clinical efficacy in murine P. multocida infection,[2]; airway tissues collected longitudinally for transcriptomic analysis,clinically efficacious
same,Mouse survival,"[2]; positive control, 20 mg/kg, P. multocida challenge",90-100%
same,MIC50,[3],16 µg/mL
same,MIC90,[3],> 64 µg/mL
same,MIC,"[3]; ATCC43137, read-out: Comparative MIC's, P. multocida ATCC 43137",16 µg/mL
same,MIC Range,"[4]; H. somni (25) lung isolates at necropsy, natural BRD study",8 to 64 µg/mL
same,MIC50,[4]; Histophilus somni,32 µg/mL
same,MIC90,[4]; Histophilus somni,32 µg/mL
same,IC50,"[5]; LPS-stimulated bovine whole blood, read-out: TNF-α (IC50 μM)",250 µM
same,IC50,"[5]; LPS-stimulated whole bovine blood, read-out: TNF-α IC50",~250 µM
same,CD163 expression in treated cattle,[6],suppressed; also recorded: mitigates; also recorded: downregulated
same,IC50,[7],> 250 µM
same,Percent failure (treatment failure),[8]; 5 mg/kg (T02),19.3%
same,Percent failure (treatment failure),[8]; 10 mg/kg (T03),8.8%
same,Mortality,"[9]; 10 mg/kg, separate study, saline control 38.9%",13%
same,Mortality,"[9]; T02: 10 mg/kg subcutaneous Day -1, M. haemolytica challenge Day 0, 6 animals",1/6
same,Mortality,"[9]; T04: 10 mg/kg subcutaneous Day -1, No challenge, 6 animals",0/6
same,"Significance at .20 level to T01, lung lesions","[9]; Table 6 study, T04: 10 mg/kg subcutaneous",Yes
same,"Mortality/Euthanization Yes, %",[9]; [12],12.5%
same,"Mortality/Euthanization Yes, Number",[9]; [12],3
same,"Mortality/Euthanization No, %",[9]; [12],87.5%
same,"Mortality/Euthanization No, Number",[9]; [12],21
same,"Significance to T01, mortality",[9]; [12],Yes
same,"Significance at .20 level to T01, lung lesions","[9]; Table 8 study, T05: 10 mg/kg subcutaneous",yes
same,"Mortality/Euthanization Yes, %",[9]; [13],13.0%
same,"Mortality/Euthanization Yes, Number",[9]; [13],3
same,"Mortality/Euthanization No, %",[9]; [13],87.0%
same,"Mortality/Euthanization No, Number",[9]; [13],20
same,"Significance to T01, mortality",[9]; [13],Yes
same,IL-6 levels (plasma) in bovine M. haemolytica challenge,[10],significantly reduced; also recorded: downregulated
same,lung lesions,[11],20%
